Results reported in patent publication US20260001876A1, “Compounds and Their Use as PDE4 Activators” (Mironid Limited, priority 2022, published 2026).

Test system: m-IMCD3 cells
Test: Inhibition of PGE2-stimulated in vitro cyst formation in m-IMCD3 cells (3D culture)
Type: cell-based
Settings: Mus musculus, mIMCD3, 144 h; 3 μM; mean cyst area; 100% for (DMSO + PGE2) and 0% for DMSO control; 6 days of culture; read-out: % Cyst area* after incubation with 3 μM test compound
Description: HEK 293 and MDCK cells (Public Health England, Cell Culture Collections) were maintained in Dulbecco's Modified Eagle's Medium (DMEM) supplemented with 10% (v/v) fetal bovine serum (FBS) (Seralab), 2 mM L-glutamine and 100 U/mL penicillin streptomycin cocktail (ThermoFisher); termed complete media. Clonal HEK 293 cell lines were maintained in complete media supplemented with 0.6 mg/ml G418 (Enzo Life Sciences). Mouse inner medullary collecting duct (m-IMCD3) cells [American Type Culture Collection (ATCC)] were maintained in media consisting of DMEM/Hams F-12 50/50 Mix (DMEM F12; Corning) supplemented with penicillin streptomycin cocktail (100 U/mL) and FBS (10% v/v) (DMEM F12-10% FBS).
Experiment 3: Inhibition of In Vitro Cyst Formation in m-IMCD3 Cells Treated with PDE4 Long Form Activators
The mouse Inner Medullary Collecting Duct cell line (m-IMCD3) spontaneously forms cystic spheroids in 3D culture with a Type 1 collagen/Matrigel extracellular matrix. This process can be stimulated with agents which raise intracellular cAMP and is used as an in vitro model for the formation of cystic structures in the kidneys of patients with ADPKD.
Rat Collagen I (Fisher Scientific) is prepared on ice by neutralising with 1M NaOH and diluting with a 2× volume of DMEM/F12+10% FBS. This is mixed 1:1.1 with ice cold Matrigel (Corning) for coating plates (coating mix), and 1:0.93 with Matrigel for cell plating (plating mix).
The assay is conducted in the wells of a 96-well plate culture dish using a total volume of 130 μL of collagen/Matrigel/DMEM F12-10% FBS suspension in growth media for each matrix plug per individual well. Initially, 30 μL of collagen/Matrigel/DMEM F12-10% FBS (coating mix) is added into the well of a 96 well plate and the collagen is set to a gel by incubating at 37° C. for at least 15 minutes. A second layer of 100 μL collagen/Matrigel suspension (plating mix) containing m-IMCD3 cells (2.75×10^6 m-IMCD3 cells per 96-well plate) is layered over the coating mix and the collagen/Matrigel/cell mix again set to a gel by incubating at 37° C. Cell cultures are maintained at 37° C. in an atmosphere of 5% CO2, 95% air.
Between 18 and 24 h after plating, test compound(s) as DMSO stock solutions [0.1% (v/v) final DMSO concentration] and PGE2 (100 nM final concentration) in DMEM F12-10% FBS are added in quadruplicate wells per condition. Media, together with the test compound and PGE2 are replenished after 2 or 3 days. After 6 days of culture z stack images of the wells are captured using the Nikon Eclipse Ti2-E microscope. Nikon General Analysis software is used to measure the following parameters in each well: the mean cyst area, the number of cysts, and the total cyst area.
PDE4 long form activators inhibited in vitro cyst formation in m-IMCD3 cells. Data are shown in Table 4 as mean cyst area (%), compared to 100% for (DMSO+PGE2) and 0% for DMSO control.

Compared with N#Cc1ccc(CC(=O)N2CCc3nc(N4CCNCC4)ncc3C2)cc1 [Example 137, 4-(2-oxo-2-(2-(piperazin-1-yl)-7,8-dihydropyrido[4,3-d]pyrimidin-6(5H)-yl)ethyl)benzonitrile], O=C(Cc1ccc(F)cc1)N1CCc2nc(N3CCNCC3)ncc2C1 [Example 140, 2-(4-fluorophenyl)-1-(2-(piperazin-1-yl)-7,8-dihydropyrido[4,3-d]pyrimidin-6(5H)-yl)ethan-1-one] is lower in activity at 3 µM: 13% for the first, 6% for the second.

First: O=C(Cc1ccccc1)N1CCc2nc(N3CCNCC3)ccc2C1 [Example 175, 2-phenyl-1-(2-(piperazin-1-yl)-7,8-dihydro-1,6-naphthyridin-6(5H)-yl)ethan-1-one]
Second: O=S(=O)(Cc1ccccc1)N1CCc2nc(N3CCNCC3)ccc2C1 [Example 164, 6-(benzylsulfonyl)-2-(piperazin-1-yl)-5,6,7,8-tetrahydro-1,6-naphthyridine]
The activity at 3 µM of the first is higher: 2% for the first, 0% for the second.

Going from O=C(OC1CCCC1)N1CCc2nc(N3C4CCC3CNC4)ccc2C1 [Example 125, cyclopentyl 2-(3,8-diazabicyclo[3.2.1]octan-8-yl)-7,8-dihydro-1,6-naphthyridine-6(5H)-carboxylate] to CC(C)OC(=O)N1CCc2nc(N3C4CCC3CNC4)ccc2C1 [Example 126, isopropyl 2-(3,8-diazabicyclo[3.2.1]octan-8-yl)-7,8-dihydro-1,6-naphthyridine-6(5H)-carboxylate], the activity at 3 µM rises from -3% to 14%.

Going from O=C(c1ccccc1)N1CCc2nc(N3C4CCC3CNC4)ccc2C1 [Example 120, (2-(3,8-diazabicyclo[3.2.1]octan-8-yl)-7,8-dihydro-1,6-naphthyridin-6(5H)-yl)(phenyl)methanone] to O=C(OCc1ccccc1)N1CCc2nc(N3C4CCC3CNC4)ccc2C1 [Example 127, benzyl 2-(3,8-diazabicyclo[3.2.1]octan-8-yl)-7,8-dihydro-1,6-naphthyridine-6(5H)-carboxylate], the activity at 3 µM rises from 1% to 3%.

Going from O=C(CC1CCCC1)N1CCc2nc(N3CC4CCC3CN4)ccc2C1 (centres unmarked) [Example 153, 1-(2-(2,5-diazabicyclo[2.2.2]octan-2-yl)-7,8-dihydro-1,6-naphthyridin-6(5H)-yl)-2-cyclopentylethan-1-one] to O=C(CC1CCCC1)N1CCc2nc(N3C4CNCC3CC(O)C4)ccc2C1 (centres unmarked) [Example 157, 2-cyclopentyl-1-(2-(7-hydroxy-3,9-diazabicyclo[3.3.1]nonan-9-yl)-7,8-dihydro-1,6-naphthyridin-6(5H)-yl)ethan-1-one], the activity at 3 µM rises from 2% to 10%.

Going from Cc1cncc(-c2ccc3c(n2)CCN(C(=O)CC2CCCC2)C3)c1 [Example 182, 2-cyclopentyl-1-(2-(5-methylpyridin-3-yl)-7,8-dihydro-1,6-naphthyridin-6(5H)-yl)ethan-1-one] to O=C(CC1CCCCC1)N1CCc2nc(N3CCNCC3)ncc2C1 [Example 145, 2-cyclohexyl-1-(2-(piperazin-1-yl)-7,8-dihydropyrido[4,3-d]pyrimidin-6(5H)-yl)ethan-1-one], the activity at 3 µM falls from 50% to 15%.

First: CC(C)(C)CC(=O)N1CCc2nc(N3C4CCC3CNC4)ncc2C1 [Example 146, 1-(2-(3,8-diazabicyclo[3.2.1]octan-8-yl)-7,8-dihydropyrido[4,3-d]pyrimidin-6(5H)-yl)-3,3-dimethylbutan-1-one]
Second: CC(C)(C)CC(=O)N1CCc2nc(N3CCNCC3)ccc2C1 [Example 149, 3,3-dimethyl-1-(2-(piperazin-1-yl)-7,8-dihydro-1,6-naphthyridin-6(5H)-yl) butan-1-one]
The activity at 3 µM of the first is higher: 22% for the first, 11% for the second.

First: COCCN1CC2CCC(C1)N2c1ccc2c(n1)CCN(C(=O)COc1ccc(F)cc1)C2 [Example 173, 2-(4-fluorophenoxy)-1-(2-(3-(2-methoxyethyl)-3,8-diazabicyclo[3.2.1]octan-8-yl)-7,8-dihydro-1,6-naphthyridin-6(5H)-yl)ethan-1-one]
Second: O=C(c1ccc(F)cc1)N1CCc2nc(N3C4CCC3CNC4)ccc2C1 [Example 123, (2-(3,8-diazabicyclo[3.2.1]octan-8-yl)-7,8-dihydro-1,6-naphthyridin-6(5H)-yl)(4-fluorophenyl)methanone]
The activity at 3 µM of the first is higher: 3% for the first, -7% for the second.

Going from CCN1CCN(c2ccc3c(n2)CCN(S(=O)(=O)Cc2ccccc2)C3)CC1 [Example 165, 6-(benzylsulfonyl)-2-(4-ethylpiperazin-1-yl)-5,6,7,8-tetrahydro-1,6-naphthyridine] to CCN1CCN(c2ccc3c(n2)CCN(S(=O)(=O)Cc2ccc(F)cc2)C3)CC1 [Example 161, 2-(4-ethylpiperazin-1-yl)-6-((4-fluorobenzyl)sulfonyl)-5,6,7,8-tetrahydro-1,6-naphthyridine], the activity at 3 µM rises from -1% to 0%.

Going from O=C(Cc1ccc(F)cc1)N1CCc2nc(N3CC4CCC(C3)N4)ncc2C1 [Example 141, 1-(2-(3,8-diazabicyclo[3.2.1]octan-3-yl)-7,8-dihydropyrido[4,3-d]pyrimidin-6(5H)-yl)-2-(4-fluorophenyl)ethan-1-one] to O=C(CC1CCCC1)N1CCc2cc(N3C4CCC3CNC4)cnc2C1 [Example 177, 1-(3-(3,8-diazabicyclo[3.2.1]octan-8-yl)-5,8-dihydro-1,7-naphthyridin-7 (6H)-yl)-2-cyclopentylethan-1-one], the activity at 3 µM rises from -2% to 10%.

Same assay, conditions: Mus musculus, mIMCD3, 144 h; 10 μM; mean cyst area; 100% for (DMSO + PGE2) and 0% for DMSO control; 6 days of culture; read-out: % Cyst area* after incubation with 10 μM test compound

Going from CCN(CC)C(=O)N1Cc2ccc(N3C4CCC3CNC4)nc2C1 [Example 96, 2-(3,8-diazabicyclo[3.2.1]octan-8-yl)-N,N-diethyl-5,7-dihydro-6H-pyrrolo[3,4-b]pyridine-6-carboxamide] to CC(C)C(C)C(=O)N1CCc2nc(N3C4CCC3CNC4)ccc2C1 (centres unmarked) [Example 44, 1-(2-(3,8-diazabicyclo[3.2.1]octan-8-yl)-7,8-dihydro-1,6-naphthyridin-6(5H)-yl)-2,3-dimethylbutan-1-one], the activity at 10 µM rises from -4% to -2%.

First: O=C(N1Cc2ccc(N3C4CCC3CNC4)nc2C1)C(F)(F)c1ccccc1 [Example 130, 1-(2-(3,8-diazabicyclo[3.2.1]octan-8-yl)-5,7-dihydro-6H-pyrrolo[3,4-b]pyridin-6-yl)-2,2-difluoro-2-phenylethan-1-one]
Second: O=C(CC1CCC(F)(F)CC1)N1Cc2ccc(N3C4CCC3CNC4)nc2C1 [Example 87, 1-(2-(3,8-diazabicyclo[3.2.1]octan-8-yl)-5,7-dihydro-6H-pyrrolo[3,4-b]pyridin-6-yl)-2-(4,4-difluorocyclohexyl)ethan-1-one]
The activity at 10 µM of the first is lower: -10% for the first, 0% for the second.

First: O=C(C1CCCC1)N1CCc2nc(N3C4CCC3CNC4)ccc2C1 [Example 47, (2-(3,8-diazabicyclo[3.2.1]octan-8-yl)-7,8-dihydro-1,6-naphthyridin-6(5H)-yl)(cyclopentyl)methanone]
Second: O=C(N1CCCC1)N1CCc2nc(N3C4CCC3CNC4)ccc2C1 [Example 61, (2-(3,8-diazabicyclo[3.2.1]octan-8-yl)-7,8-dihydro-1,6-naphthyridin-6(5H)-yl)(pyrrolidin-1-yl)methanone]
The activity at 10 µM of the first is higher: 5% for the first, 3% for the second.

Compared with CN1CC2CCC(C1)N2c1ccc2c(n1)CCN(C(=O)CC1CCC(F)(F)CC1)C2 [Example 106, 2-(4,4-difluorocyclohexyl)-1-(2-(3-methyl-3,8-diazabicyclo[3.2.1]octan-8-yl)-7,8-dihydro-1,6-naphthyridin-6(5H)-yl)ethan-1-one], CN1CC2CCC(C1)N2c1ccc2c(n1)CN(C(=O)CC1CCC(F)(F)CC1)C2 [Example 93, 2-(4,4-difluorocyclohexyl)-1-(2-(3-methyl-3,8-diazabicyclo[3.2.1]octan-8-yl)-5,7-dihydro-6H-pyrrolo[3,4-b]pyridin-6-yl)ethan-1-one] is lower in activity at 10 µM: 1% for the first, -3% for the second.

With CC1(CC(=O)N2CCc3nc(N4C5CCC4CNC5)ccc3C2)CCCC1 [Example 119, 1-(2-(3,8-diazabicyclo[3.2.1]octan-8-yl)-7,8-dihydro-1,6-naphthyridin-6(5H)-yl)-2-(1-methylcyclopentyl)ethan-1-one] the activity at 10 µM was -4%.
